The text below walks through data of patent US20240279202A1 (NURIX THERAPEUTICS, INC., priority 2021, published 2024).

In general, DC50 refers to the midpoint of the concentration-degradation curve. A high value points to a less potent degrader. As a reminder, the Dmax is the greatest extent of degradation seen.

The assay has as its target T1, ITK (Homo sapiens, UniProt Q08881).
T1 sequence (Q08881 1-620): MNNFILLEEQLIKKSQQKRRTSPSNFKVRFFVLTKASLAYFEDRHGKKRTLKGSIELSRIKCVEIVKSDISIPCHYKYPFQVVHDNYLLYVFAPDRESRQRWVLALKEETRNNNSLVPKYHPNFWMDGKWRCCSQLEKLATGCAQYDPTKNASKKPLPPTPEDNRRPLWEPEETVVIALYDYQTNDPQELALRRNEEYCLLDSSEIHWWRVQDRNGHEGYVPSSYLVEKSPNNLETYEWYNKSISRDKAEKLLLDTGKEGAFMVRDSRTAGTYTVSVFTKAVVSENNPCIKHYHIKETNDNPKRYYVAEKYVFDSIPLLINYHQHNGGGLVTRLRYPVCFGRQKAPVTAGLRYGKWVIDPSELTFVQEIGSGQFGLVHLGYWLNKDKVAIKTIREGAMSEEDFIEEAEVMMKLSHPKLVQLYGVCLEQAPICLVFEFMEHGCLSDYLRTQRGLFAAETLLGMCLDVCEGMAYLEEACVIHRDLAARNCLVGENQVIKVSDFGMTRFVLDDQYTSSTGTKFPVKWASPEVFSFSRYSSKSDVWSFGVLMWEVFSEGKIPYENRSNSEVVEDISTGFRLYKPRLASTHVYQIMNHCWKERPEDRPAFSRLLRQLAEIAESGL
Nature of the assay: ITK degradation MSD (Meso Scale Discovery) assay. Format: cell-based. On the set-up: either human Jurkat (Clone E6-1 ATCC TIB-152) or Motl4 (ATCC CRL-1552), were plated; endogenous in cells; host or cells: Jurkat clone E6-1 (ATCC TIB-152) or Molt4 (ATCC CRL-1552). Particulars: Jurkat or Molt4 cells, 4 or 6 hrs. The essentials: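 Human Jurkat or Molt4 cells in RPMI/10% FBS were treated 4 or 6 h […] with a 7-point, 5-fold dilution series (final 0.5% DMSO). Lysate ITK was quantified by MSD sandwich ECL immunoassay and expressed as % remaining versus DMSO. DC50 and Dmax came from four-parameter fits.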
The compound `C[C@@H](C(=O)N(C)c1ccc2cc(-c3n[nH]c4c3CCC(C)(C)C4)[nH]c2c1)N1CCN(C(=O)C2CN(C3CCN(c4ccc5c(c4)C(=O)N(C4CCC(=O)NC4=O)C5=O)CC3)C2)CC1` (stereo partly drawn) [Compound 34, (2S)—N-(2-(6,6-dimethyl-4,5,6,7-tetrahydro-1H-indazol-3-yl)-1H-indol-6-yl)-2-(4-(1-(1-(2-(2,6-dioxopiperidin-3-yl)-1,3-dioxoisoindolin-5-yl)piperidin-4-yl)azetidine-3-carbonyl)piperazin-1-yl)-N-methylpropanamide] came in with a DC50 of 1 nM and a Dmax of 86%.

Consider `CN(C(=O)CCN1CCN(c2ccc3c(c2)C(=O)N(C2CCC(=O)NC2=O)C3=O)CC1)c1ccc2cc(-c3n[nH]c4c3CCC(C)(C)C4)[nH]c2c1` (centres unmarked) [Compound 2, N-(2-(6,6-dimethyl-4,5,6,7-tetrahydro-1H-indazol-3-yl)-1H-indol-6-yl)-3-(4-(2-(2,6-dioxopiperidin-3-yl)-1,3-dioxoisoindolin-5-yl)piperazin-1-yl)-N-methylpropanamide], for which the DC50 came to 1.1 nM and the Dmax was determined as 84%.

`C[C@@H](C(=O)N(C)c1ccc2cc(-c3n[nH]c4c3CCC(C)(C)C4)[nH]c2c1)N1CCN(C[C@H]2CCN(c3ccc4c(c3)C(=O)N(C3CCC(=O)NC3=O)C4=O)C2)CC1` (stereo partly drawn) [Compound 33, (2S)—N-(2-(6,6-dimethyl-4,5,6,7-tetrahydro-1H-indazol-3-yl)-1H-indol-6-yl)-2-(4-(((3R)-1-(2-(2,6-dioxopiperidin-3-yl)-1,3-dioxoisoindolin-5-yl)pyrrolidin-3-yl)methyl)piperazin-1-yl)-N-methylpropanamide] had a DC50 of 1.6 nM and a Dmax of 87%.

With `CN(C(=O)C1CN(C2CCN(c3ccc4c(c3)C(=O)N(C3CCC(=O)NC3=O)C4=O)CC2)C1)c1ccc2cc(-c3n[nH]c4c3CCC(C)(C)C4)[nH]c2c1` (centres unmarked) [Compound 35, N-(2-(6,6-dimethyl-4,5,6,7-tetrahydro-1H-indazol-3-yl)-1H-indol-6-yl)-1-(1-(2-(2,6-dioxopiperidin-3-yl)-1,3-dioxoisoindolin-5-yl)piperidin-4-yl)-N-methylazetidine-3-carboxamide], the DC50 was 8 nM and the Dmax was found to be 83%.

`C[C@@H](C(=O)N(C)c1ccc2cc(-c3n[nH]c4c3CCC(C)(C)C4)[nH]c2c1)N1CCN(CC2CCN(c3ccc(C(=O)NC4CCC(=O)NC4=O)nc3)CC2)CC1` (stereo partly drawn) [Compound 7, 5-(4-((4-((S)-1-((2-(6,6-dimethyl-4,5,6,7-tetrahydro-1H-indazol-3-yl)-1H-indol-6-yl)(methyl)amino)-1-oxopropan-2-yl)piperazin-1-yl)methyl)piperidin-1-yl)-N-(2,6-dioxopiperidin-3-yl)picolinamide] showed a DC50 of 10 nM and a Dmax of 83%.

`C[C@@H](C(=O)N(C)c1ccc2cc(-c3n[nH]c4c3CCC(C)(C)C4)[nH]c2c1)N1CCN(CC2CCN(c3ccc4c(c3)n(C)c(=O)n4C3CCC(=O)NC3=O)CC2)CC1` (stereo partly drawn) [Compound 6, (2S)—N-(2-(6,6-dimethyl-4,5,6,7-tetrahydro-1H-indazol-3-yl)-1H-indol-6-yl)-2-(4-((1-(1-(2,6-dioxopiperidin-3-yl)-3-methyl-2-oxo-2,3-dihydro-1H-benzo[d]imidazol-5-yl)piperidin-4-yl)methyl)piperazin-1-yl)-N-methylpropanamide] returned a DC50 of 0.0041 nM and a Dmax of 81%.

For the compound `CN(C(=O)CCC1CCN(c2ccc3c(c2)C(=O)N(C2CCC(=O)NC2=O)C3=O)C1)c1ccc2cc(-c3n[nH]c4c3CCC(C)(C)C4)[nH]c2c1` (centres unmarked) [Compound 1, N-(2-(6,6-dimethyl-4,5,6,7-tetrahydro-1H-indazol-3-yl)-1H-indol-6-yl)-3-(1-(2-(2,6-dioxopiperidin-3-yl)-1,3-dioxoisoindolin-5-yl)pyrrolidin-3-yl)-N-methylpropanamide], the DC50 is 7 nM and the Dmax was determined as 87%.
